Measured values reported in patent publication US9090662B2, “Dithioamine reducing agents” (WISCONSIN ALUMNI RESEARCH FOUNDATION, priority 2012, dated 2015).
Read-outs that look alike come from different tables or passages of the source. Marks after values point to notes of the source that are not given here.

What was measured:
papaya latex papain = target: T1, papaya latex papain (Carica papaya, UniProt P00784); assay: Kinetic studies on the reactivation of papain (reduction of mixed disulfide at Cys25); type: biochemical; conditions: 0.10 M imidazole-HCl buffer, pH 7.0, 2 mM EDTA; for kobs, second-order rate constant, reactivation of papain: mean ± SE from three experiments
T1 construct: Cys25 in the active site of papaya latex papain; from tissue; host or cells: papaya latex
T1 sequence (P00784 134-345): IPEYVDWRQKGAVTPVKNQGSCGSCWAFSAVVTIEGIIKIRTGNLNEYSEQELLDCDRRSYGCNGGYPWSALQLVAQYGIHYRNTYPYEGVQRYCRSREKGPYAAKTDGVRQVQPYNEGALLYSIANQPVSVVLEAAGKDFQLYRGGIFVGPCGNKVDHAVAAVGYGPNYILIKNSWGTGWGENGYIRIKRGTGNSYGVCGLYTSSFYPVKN
Description: Cys25 in the active site of papaya latex papain was oxidized as a mixed disulfide by a procedure described previously.[25] Briefly, a stock solution of methyl methanethiosulfonate (3.5 mM) was prepared by dilution of 5 μL of methyl methanethiosulfonate with 15 mL of 0.10 M potassium phosphate buffer, pH 7.0, containing EDTA (2 mM). KCl (0.011 g, 0.15 mmol) was added to 1.5 mL of this stock solution. The solution was deoxygenated by bubbling N2(g) through it for 15 min. Next, papain (5 mg, 150 units) was added, and the resulting solution was incubated at room temperature under N2(g) for 12 h. Excess methyl methanethiosulfonate was removed by size-exclusion chromatography using a Sephadex G-25 column. The final concentration of papain was determined by A280 using ε280=5.60×10^4 M^−1cm^−1. A solution (0.26 mL) of the chromatographed protein was diluted with 4.94 mL of deoxygenated aqueous buffer (0.10 M imidazole-HCl buffer, pH 7.0, containing 2 mM EDTA). Enzyme solution (1.25 mL) was then added to four separate vials. […] The rate of change in absorbance at 410 nm was recorded at 25° C. A unit of protein is defined by the amount of enzyme required to produce 1 μmol/min of 4-nitroaniline. Using an extinction coefficient for 4-nitroaniline of ε=8,800 M^−1cm^−1 at 410 nm, [27] the number of units of active papain in solution at each time point was calculated. […] Enzymatic activity (%) at particular times was calculated by dividing the number of active units of enzyme by the possible number of units in the solution, and was plotted as in FIG. 2A. To determine the value of the second-order rate constant kobs for the reducing agents, the second-order rate equation (eq 4) was transformed into eq 5, which was fitted to the data with the program PRISM 5.0. […] Values of kobs were the mean±SE from three experiments.

[1] = Determination of thiol pKa values (pH-titration monitored by absorbance at 238 nm); type: physicochemical; conditions: for pKa: potassium phosphate buffer, mean ± SE from this work
Description: The thiol pKa values of DTBA were determined by measuring its absorbance at 238 nm in solutions of different pH. The deprotonated thiolate absorbs much more strongly at 238 nm than does its protonated counterpart. [15a] This attribute was exploited for determining thiol pKa values as described previously. [15b] Buffered stock solutions of K3PO4, K2HPO4, and KH2PO4 (100 mM) were degassed and flushed with N2(g) for 1 h immediately prior to use. A stock solution of DTBA (1.5 mM) in KH2PO4 was then prepared. Various combinations of the buffered stock solutions were combined in duplicate to give two identical sets of 1-mL solutions of pH 5.5-11. KH2PO4 stock solution (70 μL) was added to each replicate pair of solutions and used to set the A238 to zero. Dithiol solution (70 μL) was then added to its complimentary 1-mL vial, and its absorbance at 238 nm was recorded. The pH of the solution was then immediately measured using a Beckman pH meter, which had been calibrated prior to use with pH 7 and pH 10 standard solutions from Fisher Scientific. This process was repeated multiple times to obtain a plot of A238 vs pH (FIG. 3).
pKa values were determined by fitting the data in FIG. 3 to eq 1, which is derived from Beer's law and the definition of the acid dissociation constant. [15b] In eq 1, CT is total thiol concentration, εSH^SH is the extinction coefficient of the doubly protonated form, εSH^S− is the extinction coefficient of the singly protonated form, and εS−^S−is the extinction coefficient of the unprotonated form. Both pKa values and extinction coefficients were determined from the curve fit.

[2] = Kinetic studies on the reduction of oxidized βME; type: physicochemical
Description: The observed second-order rate constant (kobs) for a thiol-disulfide interchange reaction was determined by adapting a procedure described previously. [2e] When the disulfide is oxidized βME, a 50 mM stock solution of potassium phosphate buffer was degassed and purged with N2(g) for 30 min immediately prior to use. […] Phosphate buffer (2.5 mL) was added to the round-bottom flask containing the dithiol. Oxidized βME stock solution (2.5 mL) was then added, and the reaction mixture was stirred at room temperature under N2(g) for 1 min. The reaction mixture was quenched by the addition of 0.10 mL of 3 N HCl. The reaction mixture was passed through a 4.5-μm filter, and 100 μL of the reaction mixture was analyzed immediately by HPLC using a Varian C18 reverse-phase column. The column was eluted at 1.0 mL/min with water (5.0 mL), followed by a linear gradient (0-40% v/v) of acetonitrile/water over 40 min. The extent of reduction was determined by integrating the newly formed peak corresponding to βME at 205 nm (retention time: 8 min). This process was repeated for reaction times of 2 and 4 min. Calibration curves were generated and found to be linear over the used concentration range. The amount of residual oxidized βME was calculated, and second-order rate constants were calculated from a linear fit of the data in FIG. 1A (that is, kobs=[(1/cfinal)−(1/cinitial)]/t). […] Rate constants were the mean±SE from three experiments.

[3] = Kinetic studies on the reduction of oxidized L-glutathione; type: physicochemical; conditions: for kobs, second-order rate constant, reduction of oxidized L-glutathione: pH 7.0, 50 mM potassium phosphate buffer, mean ± SE from three experiments
Description: An experiment similar to that in Example 7 was conducted with disulfide=oxidized L-glutathione. Reactions were quenched at various time points (2, 4, 6, and 8 min) and 100 μL was analyzed by HPLC (1.0 mL/min with water (5.0 mL) in 0.1% v/v TFA, followed by a linear gradient (0-40% v/v) of acetonitrile in 0.1% v/v TFA over 40 min). The extent of reduction was determined by integrating the newly formed L-glutathione reduced peak at 220 nm (retention time of 7 min). Second-order rate constants were calculated from a linear fit of the data in FIG. 1B (that is, kobs=[(1/cfinal)−(1/cinitial)]/t). Rate constants were the mean±SE from three experiments.

[4] = Separation using DOWEX 50WX4-400 ion-exchange resin (Ellman's assay of filtrate); type: physicochemical; conditions: 0.10 M sodium phosphate buffer, pH 8.0, 1 mM EDTA
Description: A reaction buffer (0.10 M sodium phosphate, pH 8.0, 1 mM EDTA) was prepared. Ellman's reagent solution was prepared by adding Ellman's reagent (4 mg) to 1 mL of the reaction buffer. Next, to 25 mL of reaction buffer (0.10 M sodium phosphate, pH 8.0, 1 mM EDTA) was added DTBA (2.2 mg, 1.27×10^−5 mol) and 1.7 g of DOWEX 50WX4-400 ion-exchange resin. The mixture was swirled for several minutes and filtered through a fritted syringe. Ellman's reagent solution (50 μL) was added to two separate vials containing 2.5 mL of reaction buffer. As a blank, 250 μL of reaction buffer was added to one of the vials, and the absorbance at 412 nm was set to zero. Filtrate (250 μL) was then added to the other vial and its absorbance was recorded. With A412=0.012 and using an extinction coefficient of ε=14,150 M^−1cm^−1, [24b, 24c] it was calculated that >99% of DTBA was retained by the resin and thus removed from solution. […] See Example 3 for a more detailed explanation of similar calculations using Ellman's assay.

[5] = target: T2, rabbit muscle creatine kinase (Oryctolagus cuniculus, UniProt P00563); assay: Kinetic studies on the reactivation of creatine kinase (reduction of mixed disulfide at Cys283); type: biochemical; conditions: creatine kinase-Cys283-S—S-glutathione; mean ± SE from three experiments
T2 construct: Cys283 in the active site of rabbit muscle creatine kinase; from tissue; host or cells: rabbit muscle
T2 sequence (P00563 whole entry): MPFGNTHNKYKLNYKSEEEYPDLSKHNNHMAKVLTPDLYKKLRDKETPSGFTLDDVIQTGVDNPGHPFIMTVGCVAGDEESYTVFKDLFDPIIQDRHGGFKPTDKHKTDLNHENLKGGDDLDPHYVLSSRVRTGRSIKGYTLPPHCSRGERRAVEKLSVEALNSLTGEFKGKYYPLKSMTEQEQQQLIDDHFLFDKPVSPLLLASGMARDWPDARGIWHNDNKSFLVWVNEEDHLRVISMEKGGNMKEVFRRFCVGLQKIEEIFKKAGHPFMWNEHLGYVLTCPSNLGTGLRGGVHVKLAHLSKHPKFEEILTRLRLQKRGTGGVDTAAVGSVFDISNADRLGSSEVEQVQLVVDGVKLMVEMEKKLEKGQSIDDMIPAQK
Description: Cys283 in the active site of rabbit muscle creatine kinase was oxidized as a mixed disulfide by a procedure described previously, [28] but with a slight modification in the measurement of active enzyme. A unit of enzyme was defined as the amount required to produce 1 μmol/min of NADPH. Using an extinction coefficient for NADPH of ε=6.22 mM^−cm^−1 at 340 nm, the units of active creatine kinase in solution at a particular time were calculated. […] Enzymatic activity (%) at particular times was calculated by dividing the number of active units of enzyme by the possible number of units in the solution, and was plotted as in FIG. 2B. Values of the second-order rate constant k were determined by using eq 4 as described in Example 9, and were the mean±SE from three experiments.

[6] = value from the literature, cited from earlier work
[7] = value from the literature, cited from earlier work; remark: listed apart in the source
[8] = Reduction potential (E°′) from HPLC redox equilibrium with oxidized DTT; type: physicochemical; conditions: for Keq for the reaction with oxidized DTT: 50 mM potassium phosphate buffer pH 7, 24 h, room temperature
Description: [2g] Data were obtained by a procedure similar to that described previously. [2g, 15b] […] The flask was then flushed with N2(g) for 30 min.
A 50 mM stock solution of potassium phosphate buffer (pH 7) was degassed and purged with N2(g) for 30 min immediately prior to use. Buffer (15 mL) was added, and the reaction mixture was stirred under N2(g) for 24 h at room temperature. The reaction mixture was then quenched by the addition of 3 N HCl (1:100 dilution). The reaction mixture was passed through a 4.5-μm filter, and 100 μL of the reaction mixture was analyzed immediately by HPLC using a Waters system equipped with a Waters 996 photodiode array detector, Empower 2 software, and a Varian C18 reverse-phase column. The column was eluted at 1.0 mL/min with water (5.0 mL), followed by a linear gradient (0-40% v/v) of acetonitrile/water over 40 min. Compounds were detected by their absorbance at 205 nm. Reduced and oxidized DTBA are highly polar and elute from the column immediately (as confirmed by LC-MS). Two peaks, however, were clearly visible in the chromatogram FIG. 4). […] Calibration curves were generated and found to be linear over the used concentration range.
The procedure described in Example 5 was also performed with BMS. […] A previously reported reduction potential for BMS was E°′=−0.31 V. [2g]

[9] = from ref. 13; cited from earlier work
Solubility in water = type: physicochemical; conditions: HCl salt
[10] = pH 5.5, 50 mM potassium phosphate buffer
[11] = pH 7.0, 50 mM potassium phosphate buffer, mean ± SE from three experiments

| SMILES | kobs, second-order rate constant, reactivation of papain (papaya latex papain) [M⁻¹ s⁻¹] | kobs, second-order rate constant, reduction of oxidized βME [2, 10] [M⁻¹ s⁻¹] | kobs, second-order rate constant, reduction of oxidized βME [2, 11] [M⁻¹ s⁻¹] | kobs, second-order rate constant, reduction of oxidized L-glutathione [3] [M⁻¹ s⁻¹] | Fraction removed from solution (retained) by Dowex 50 cation-exchange resin [4] [%] | kobs, second-order rate constant, reactivation of creatine kinase [5] [M⁻¹ s⁻¹] | Keq for the reaction with oxidized DTT [8] | Disulfide Reduction Potential (E°′) [6] | Thiol pKa ([7]; lower (first) thiol pKa) | further results |
| --- | --- | --- | --- | --- | --- | --- | --- | --- | --- | --- |
| O[C@H](CS)[C@H](O)CS (racemic) [DTT, (2S,3S)-1,4-dimercaptobutane-2,3-diol] | 91.3 ± 9.4 | 0.0021 ± 0.0002 | 0.084 ± 0.004 | 0.16 ± 0.02 | < 1 | 17.5 ± 1.6 |  |  |  | Residues in the reactive thiolate form ([1]; at pH 7): less than 1%; Thiol groups protonated (unreactive) ([1]; at pH 7, from lower thiol pKa […]): greater than 99%; Disulfide Reduction Potential (E°′) ([6]; listed as DTT (racemate)): −0.327 V^e |
| O=S(=O)(CCS)CCS [BMS, Bis(2-mercaptoethyl)sulfone] |  |  |  |  |  |  | 0.0517±0.0194 | −0.31 V |  | Thiol pKa ([7]; second (higher) thiol pKa): 9.0±0.2; Disulfide Reduction Potential (E°′) ([8]; 50 mM potassium phosphate buffer pH 7, equilibrium with oxidized DTT, assuming E°′=−0.327 V for DTT, mean ± SE from seven experiments): −0.291±0.002 V |
| NCCS [Cysteamine] |  |  |  |  |  |  |  | −0.203 V^b | 8.37^c | Amino pKa [9]: 10.44 |
| N[C@H](CS)CCS [DTBA, (2S)-2-amino-1,4-dimercaptobutane] | 1342 ± 148 | 0.0093 ± 0.0003 | 0.29 ± 0.02 | 0.83 ± 0.04 | > 99 | 15.1 ± 1.0 | 0.469±0.131 |  |  | Solubility in water (Solubility in water): high solubility in water; kobs^DTBA/kobs^DTT, reduction of papain mixed disulfide (fold faster than DTT) (papaya latex papain): 14; pKa ([1]; lower (first) thiol pKa, 0.10 M potassium phosphate buffer): 8.2 ± 0.2; pKa ([1]; second (higher) thiol pKa, in parentheses in Table 1): 9.3 ± 0.1; kobs^DTBA/kobs^DTT, reduction of oxidized βME (fold faster than DTT) ([2]; pH 5.5): 4.4; kobs^DTBA/kobs^DTT, reduction of oxidized βME (fold faster than DTT) ([2]; pH 7.0): 3.5; kobs^DTBA/kobs^DTT, reduction of oxidized L-glutathione (fold faster than DTT) ([3]; pH 7.0): 5.2 |
| OCCS [βME, β-mercaptoethanol] |  |  |  |  |  |  |  | −0.260 V^b | 9.61^a |  |
